Assay results: patent publication US6326476A, “Heparin derivatives and process for the preparation thereof” (Pharmacia AB, priority 1991, dated 2001)

System: Sprague-Dawley rats
Conditions: rat, in vivo, 2 mg/kg
Experimental: Res 15 191-197 was performed in Sprague-Dawley rats weighing 200-250 g anaesthetized with Mebumal/Stesolid (Dumex A/S Copenhagen). The template device (Simplate, General Diagnostics, Durham, N.C.) was applied longitudinally to the dorsal part of the tail, taking care to avoid large veins. Blood from the wound was then carefully removed every 30 sec, with blotting paper. A minimum of six rats were used for each compound and dose. Bleeding times were measured from the moment the tail was incised until the first arrest of bleeding. The bleeding time was recorded with an accuracy of 30 sec. Two bleeding times were always determined in each rat, viz. 10 min before and 10 min after drug administration, and the results are expressed as the prolongation of bleeding time.

heparin [Standard heparin]
Prolongation of bleeding time: 12.8 min
